Measurements published in patent US11083725B2 (priority 2014, dated 2021).

System: NHBE cells
Experiment: Biolog metabolic array: substrate use by NHBE cells with or without CA09 infection
Assay type: cell-based, human
Settings: for Substrate use, 590 nm absorbance normalized to zero hour, 1 hr: Biolog PMM2, 1 hr; for Substrate use, 590 nm absorbance normalized to zero hour, 5 hr: Biolog PMM2, 5 hr; for Substrate use, 590 nm absorbance normalized to zero hour, 7 hr: Biolog PMM2, 7 hr
[1] = Control (uninfected) NHBE cells
[2] = Virus (CA09-infected NHBE cells, MOI 1)
[3] = Virus: CA09-infected NHBE cells, MOI 1, Biolog PMM2
[4] = Virus (CA09-infected, MOI 1) NHBE cells

Structure (SMILES)	590 nm absorbance normalized to zero hour (substrate use), 1 hr [1]	590 nm absorbance normalized to zero hour (substrate use), 2 hr [1]	590 nm absorbance normalized to zero hour (substrate use), 3 hr [1]	590 nm absorbance normalized to zero hour (substrate use), 4 hr [1]	590 nm absorbance normalized to zero hour (substrate use), 6 hr [1]	590 nm absorbance normalized to zero hour (substrate use), 8 hr [1]	590 nm absorbance normalized to zero hour (substrate use), 9 hr [1]	590 nm absorbance normalized to zero hour (substrate use), 10 hr [1]	590 nm absorbance normalized to zero hour (substrate use), 11 hr [1]	Substrate use, 590 nm absorbance normalized to zero hour, 1 hr [1]	Substrate use, 590 nm absorbance normalized to zero hour, 5 hr [1]	Substrate use, 590 nm absorbance normalized to zero hour, 7 hr [1]	590 nm absorbance normalized to zero hour (substrate use), 1 hr [3]	590 nm absorbance normalized to zero hour (substrate use), 2 hr [3]	590 nm absorbance normalized to zero hour (substrate use), 3 hr [3]	590 nm absorbance normalized to zero hour (substrate use), 4 hr [3]	590 nm absorbance normalized to zero hour (substrate use), 5 hr [3]	590 nm absorbance normalized to zero hour (substrate use), 6 hr [3]	590 nm absorbance normalized to zero hour (substrate use), 7 hr [3]	590 nm absorbance normalized to zero hour (substrate use), 8 hr [3]	also measured
CCCCCC(=O)O [Hexanoic Acid]	1.35	1.47	2.74	2.80	1.04	4.11	4.10	4.13	3.16	1.35	1.18	4.15	0.25	0.28	0.31	0.33	0.36	0.37	0.37	0.38	590 nm absorbance normalized to zero hour (substrate use), 1 hr [2]: 0.25; 590 nm absorbance normalized to zero hour (substrate use), 2 hr [2]: 0.28; 590 nm absorbance normalized to zero hour (substrate use), 3 hr [2]: 0.31; 590 nm absorbance normalized to zero hour (substrate use), 4 hr [2]: 0.33; 590 nm absorbance normalized to zero hour (substrate use), 5 hr [2]: 0.36; 590 nm absorbance normalized to zero hour (substrate use), 6 hr [2]: 0.37; 590 nm absorbance normalized to zero hour (substrate use), 7 hr [2]: 0.37; 590 nm absorbance normalized to zero hour (substrate use), 8 hr [2]: 0.38; 590 nm absorbance normalized to zero hour (substrate use), 9 hr [2]: 0.36; 590 nm absorbance normalized to zero hour (substrate use), 10 hr [2]: 0.40; 590 nm absorbance normalized to zero hour (substrate use), 11 hr [2]: 0.41; 590 nm absorbance normalized to zero hour (substrate use), 9 hr [3]: 0.36; 590 nm absorbance normalized to zero hour (substrate use), 10 hr [3]: 0.40; 590 nm absorbance normalized to zero hour (substrate use), 11 hr [3]: 0.41
O=c1[nH]cnc2c1ncn2[C@@H]1O[C@H](CO)[C@@H](O)[C@H]1O [Inosine]	3.56	5.67	2.78	4.11	2.23	4.46	6.41	6.92	5.14	3.56	4.02	6.19	1.16	1.78	2.23	2.45	3.06	3.30	3.54	3.88	590 nm absorbance normalized to zero hour (substrate use), 1 hr [4]: 1.16; 590 nm absorbance normalized to zero hour (substrate use), 2 hr [4]: 1.78; 590 nm absorbance normalized to zero hour (substrate use), 3 hr [4]: 2.23; 590 nm absorbance normalized to zero hour (substrate use), 4 hr [4]: 2.45; 590 nm absorbance normalized to zero hour (substrate use), 5 hr [4]: 3.06; 590 nm absorbance normalized to zero hour (substrate use), 6 hr [4]: 3.30; 590 nm absorbance normalized to zero hour (substrate use), 7 hr [4]: 3.54; 590 nm absorbance normalized to zero hour (substrate use), 8 hr [4]: 3.88; 590 nm absorbance normalized to zero hour (substrate use), 9 hr [4]: 4.33; 590 nm absorbance normalized to zero hour (substrate use), 10 hr [4]: 3.83; 590 nm absorbance normalized to zero hour (substrate use), 11 hr [4]: 4.20; 590 nm absorbance normalized to zero hour (substrate use), 9 hr [3]: 4.33; 590 nm absorbance normalized to zero hour (substrate use), 10 hr [3]: 3.83; 590 nm absorbance normalized to zero hour (substrate use), 11 hr [3]: 4.20
O=C[C@H](O)[C@@H](O)[C@@H](O)CO [L-Arabinose]	1.72	2.30	2.99	3.04	2.95	3.74	4.05	4.01	4.09	1.72	3.33	3.87	1.79	2.45	3.01	3.10	3.49	3.66	3.82	4.01	590 nm absorbance normalized to zero hour (substrate use), 1 hr [4]: 1.79; 590 nm absorbance normalized to zero hour (substrate use), 2 hr [4]: 2.45; 590 nm absorbance normalized to zero hour (substrate use), 3 hr [4]: 3.01; 590 nm absorbance normalized to zero hour (substrate use), 4 hr [4]: 3.10; 590 nm absorbance normalized to zero hour (substrate use), 5 hr [4]: 3.49; 590 nm absorbance normalized to zero hour (substrate use), 6 hr [4]: 3.66; 590 nm absorbance normalized to zero hour (substrate use), 7 hr [4]: 3.82; 590 nm absorbance normalized to zero hour (substrate use), 8 hr [4]: 4.01; 590 nm absorbance normalized to zero hour (substrate use), 9 hr [4]: 4.41; 590 nm absorbance normalized to zero hour (substrate use), 10 hr [4]: 4.50; 590 nm absorbance normalized to zero hour (substrate use), 11 hr [4]: 4.78; 590 nm absorbance normalized to zero hour (substrate use), 9 hr [3]: 4.41; 590 nm absorbance normalized to zero hour (substrate use), 10 hr [3]: 4.50; 590 nm absorbance normalized to zero hour (substrate use), 11 hr [3]: 4.78
